According to PubChem BioAssay (NCI):
Where “and” joins values, the source holds several entries; their conditions need not be identical. Equal entries are not always repeated.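 Results reflect a 48-hour exposure of cells in 96-well plates to compound at five concentrations. GI50 marks 50% less growth. TGI: total growth inhibition.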

Tests used:
Assay in all cases: DTP human tumour cell line panel, 48 h
UACC-62 melanoma = system: UACC-62 melanoma
RPMI-8226 leukemia = system: RPMI-8226 leukemia
UACC-257 melanoma = system: UACC-257 melanoma
MALME-3M melanoma = system: MALME-3M melanoma
SW-620 colon = system: SW-620 colon
SK-OV-3 ovarian = system: SK-OV-3 ovarian
COLO 205 colon = system: COLO 205 colon
SF-539 CNS = system: SF-539 CNS
HS 578T breast = system: HS 578T breast
SK-MEL-5 melanoma = system: SK-MEL-5 melanoma

SMILES	TGI (UACC-62 melanoma) [µM]	TGI (RPMI-8226 leukemia) [µM]	TGI (UACC-257 melanoma) [µM]	TGI (MALME-3M melanoma) [µM]	TGI (SW-620 colon) [µM]	TGI (SK-OV-3 ovarian) [µM]	TGI (COLO 205 colon) [µM]	TGI (SF-539 CNS) [µM]	GI50 (UACC-62 melanoma)	GI50 (UACC-257 melanoma) [µM]	GI50 (MALME-3M melanoma) [µM]	GI50 (SW-620 colon) [µM]	GI50 (HS 578T breast) [µM]	TGI (HS 578T breast) [µM]	GI50 (SK-OV-3 ovarian) [µM]	GI50 (COLO 205 colon) [µM]	GI50 (SF-539 CNS) [µM]	GI50 (SK-MEL-5 melanoma) [µM]	TGI (SK-MEL-5 melanoma) [µM]	GI50 (RPMI-8226 leukemia)
COC1(OC)CCC2(C)OC(c3ccccc3)C1O2 (stereo not given)	> 100	> 100	> 100	> 100	> 100	> 100	> 100	> 100												
CN(C)C/C=C/C(=O)Nc1ccc(C(=O)Nc2cccc(Nc3ncc(Cl)c(-c4c[nH]c5ccccc45)n3)c2)cc1	0.259		> 100	0.0873	11.3	> 100	0.0562	0.0575	0.043 µM	0.0216	0.0212	0.031	0.0363	0.195	0.12	0.0121	0.0199	0.035	> 100	
C=C1C2CCCC1C1(S(C)(=O)=O)CCCCC21O (stereo not given)	> 100	> 100	> 100	> 100	> 100	> 100	> 100	> 100											> 100	
O=C(CC(=O)N1N=C(n2ccc3ccccc32)CC1c1ccccc1)Nc1ccccc1Cl (stereo not given)	> 100	> 100	> 100	> 100	> 100	> 100	> 100	> 100												
CC1CN1c1c(C(=O)/C=C/c2ccc(F)cc2)c(-c2ccccc2)nn(C)c1=O (stereo not given)	27.6	32.2	27.4	30	32.7		33												29.5	
Cc1cc(NS(=O)(=O)c2ccc(NC(=O)c3cccc4c(Nc5ccc(S(=O)(=O)Nc6cc(C)on6)cc5)c5ccc(Cl)cc5nc34)cc2)no1	> 100	> 100	> 100	> 100	> 100	> 100	> 100	> 100											> 100	
CS(=O)(=O)ON1C(=O)c2ccc(N)cc2C1=O	> 100	61.5	> 31.6	> 100	> 100	> 100	> 100	> 100											> 100	
O=C1CCC2(c3ccccc3)OCC([C@@H](O)c3ccccc3)N12 (stereo not given in full)	> 100	> 100	> 100	> 100	> 100		> 100	> 100											> 100	
Oc1c(Cl)cc(Cl)c(Cl)c1Cc1c(O)c(Cl)cc(Cl)c1Cl	12		9.3	5.93	14.4	11.6	15	18.8	0.335 µM	2.06	1.66	3.06	1.03	51.3	2.53	2.68	3.39	0.712	3.04	
CCCCNC(=O)CC1=C(C)/C(=C/c2[nH]c(-c3ccc[nH]3)cc2OC)N=C1C		4.43	4.54	5.43	13.9	8.96	4.04	9.31		2.26	2.28	3.23	2.66	9.11	2.76	1.68	2.75			1.95 µM
COc1c(CC(C)=O)c2ccccc2n1C(C)=O	> 100	> 100	> 100		> 100	> 100	> 100	> 100												
O=c1[nH]c(-c2ccccc2)nc2cc([N+](=O)[O-])c(/C(Cl)=C/c3ccccc3)cc12	42.6	88.7	48.3	> 100	> 100	72.2	79.9	> 100											74	
Cc1[nH]c2ccccc2c1/C=C/c1c(C)[nH]c2ccccc12	> 100	> 100	> 100	> 100	> 100	> 100		> 100											> 100	
CCN1C[C@@H](C)n2c(c(O)c3c(=O)n(Cc4ccc(F)c(Cl)c4)nc(C(=O)NC)c32)C1=O		7.37	6.77	8.07	> 100	9.64	40.3	5.37		2.32	2.75	3.11	2.48	7.42	3.3	18.3	2.32	1.98	4.49	2.59 µM
O=C(CCl)N1CCN(c2ccccc2)CC1		85.5	43.6	42.8	54.3	> 100	40							76.7					31.1	
CCP(C)(=O)CC	> 100	> 100	> 100	> 100	> 100	> 100	> 100	> 100											> 100	
CC(C)(C)c1cc(Cc2ccc(S(C)(=O)=O)cc2)c(O)c(C(C)(C)C)c1	26	25.8	31	32.7	31.2	36.2		30.7											30	
CC(=O)NNc1nc(C)c(C(=O)/C=C/c2ccc(N(C)C)cc2)s1	> 100	> 100	> 100	> 100	> 100	> 100	> 100	> 100											> 100	
CCN(CC)CCN1C(=O)c2c(c3c4cccc(Cl)c4n(C4OC(CO)C(OC)C(O)C4O)c3c3[nH]c4c(Cl)cccc4c23)C1=O (stereo not given)		0.00306							0.000111 µM and < 0.0264 µM and < 0.01 µM			< 0.0001		1.99						0.000139 µM and < 0.0268 µM
CN(C)CC1CCCC/C1=N\OC(=O)c1ccccc1 (stereo not given)	> 100	> 100	> 100	> 100	> 100	> 100	> 100	> 100											> 100	
